Data reported in US20210128566A1, “NOVEL FUNCTIONALIZED PURINE-2,6-DIONES AND THEIR USE IN MEDICINE” (THOMAS HELLEDAYS STIFTELSE FÖR MEDICINSK FORSKNING, priority 2017, published 2021).

Each molecule was assayed against recombinant human NUDT5 (Homo sapiens, UniProt Q9UKK9) (assay: NUDT5 inhibitor activity by malachite green reporter assay). Conditions: Table 3; 6 nM NUDT5, 50 μM ADP-Ribose, 15 minutes at room temperature.
Format: biochemical
How it was run: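 Coupled ADP-ribose hydrolysis in 10 mM Tris-acetate pH 8.0, 40 mM NaCl, 10 mM Mg acetate, 0.005% Tween-20, 1 mM DTT: 6 nM NUDT5, 50 μM ADP-Ribose, 10 U/ml alkaline phosphatase, 15 min at room temperature. Pi read by malachite green at 630 nm; compounds 100 μM–1.7 nM, 3-fold; IC50 by curve fit.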
Molecule `Cn1c(=O)c2c(nc(S(=O)(=O)C3CCCCC3)n2Cc2nnc(-c3ccc(Cl)c(Cl)c3)o2)n(C)c1=O` [Example 24, 8-(cyclohexanesulfonyl)-7-{[5-(3,4-dichlorophenyl)-1,3,4-oxadiazol-2-yl]methyl}-1,3-dimethyl-2,3,6,7-tetrahydro-1H-purine-2,6-dione] has an IC50 of 22.7 nM.
`CC(=O)N1CCN(c2nc3c(c(=O)n(C)c(=O)n3C)n2Cc2nnc(-c3ccc(Cl)c(Cl)c3)o2)CC1` [Example 32, 8-(4-acetylpiperazin-1-yl)-7-{[5-(3,4-dichlorophenyl)-1,3,4-oxadiazol-2-yl]methyl}-1,3-dimethyl-2,3,6,7-tetrahydro-1H-purine-2,6-dione] showed an IC50 of 76.7 nM.
`CN1CCN(c2nc3c(c(=O)n(C)c(=O)n3C)n2Cc2nnc(-c3ccc(Cl)c(Cl)c3)o2)CC1` [Example 18, 7-{[5-(3,4-dichlorophenyl)-1,3,4-oxadiazol-2-yl]methyl}-1,3-dimethyl-8-(4-methylpiperazin-1-yl)-2,3,6,7-tetrahydro-1H-purine-2,6-dione] was tested, and the IC50 was 151 nM.
For `Cn1c(=O)c2c(nc(N3CCC(CO)CC3)n2Cc2nnc(-c3ccc(Cl)c(Cl)c3)o2)n(C)c1=O` [Example 40, 7-{[5-(3,4-dichlorophenyl)-1,3,4-oxadiazol-2-yl]methyl}-8-[4-(hydroxymethyl)piperidin-1-yl]-1,3-dimethyl-2,3,6,7-tetrahydro-1H-purine-2,6-dione], the IC50 was 20.3 nM.
`COC(=O)C1CCN(c2nc3c(c(=O)n(C)c(=O)n3C)n2Cc2nnc(-c3ccc(Cl)c(Cl)c3)o2)CC1` [Example 39, methyl 1-(7-{[5-(3,4-dichlorophenyl)-1,3,4-oxadiazol-2-yl]methyl}-1,3-dimethyl-2,6-dioxo-2,3,6,7-tetrahydro-1H-purin-8-yl)piperidine-4-carboxylate] was tested, and the IC50 was 32.7 nM.
`CC1CCN(c2nc3c(c(=O)n(C)c(=O)n3C)n2Cc2nnc(-c3ccc(Cl)c(Cl)c3)o2)CC1` [Example 10, 7-{[5-(3,4-dichlorophenyl)-1,3,4-oxadiazol-2-yl]methyl}-1,3-dimethyl-8-(4-methylpiperidin-1-yl)-2,3,6,7-tetrahydro-1H-purine-2,6-dione] showed an IC50 of 22.9 nM.
In the case of `CCCCCCN1CCN(c2nc3c(c(=O)n(C)c(=O)n3C)n2Cc2nnc(-c3cccc(C)c3)o2)CC1` [Example 53, 8-(4-hexylpiperazin-1-yl)-1,3-dimethyl-7-{[5-(3-methylphenyl)-1,3,4-oxadiazol-2-yl]methyl}-2,3,6,7-tetrahydro-1H-purine-2,6-dione], the IC50 is reported as 806 nM.
For `CCN(CC)c1nc2c(c(=O)n(C)c(=O)n2C)n1Cc1nnc(-c2ccc(Cl)c(Cl)c2)o1` [Example 4, 7-{[5-(3,4-dichlorophenyl)-1,3,4-oxadiazol-2-yl]methyl}-8-(diethylamino)-1,3-dimethyl-2,3,6,7-tetrahydro-1H-purine-2,6-dione], the IC50 was greater than 1000 nM.
Work on `CCN1CCN(c2nc3c(c(=O)n(C)c(=O)n3C)n2Cc2nnc(-c3cccc(C)c3)o2)CC1` [Example 55, 8-(4-ethylpiperazin-1-yl)-1,3-dimethyl-7-{[5-(3-methylphenyl)-1,3,4-oxadiazol-2-yl]methyl}-2,3,6,7-tetrahydro-1H-purine-2,6-dione] yielded an IC50 of 221 nM.
With `Cc1cccc(-c2nnc(Cn3c(N4CCN(C)CC4)nc4c3c(=O)n(C)c(=O)n4C)o2)c1` [Example 51, 1,3-dimethyl-7-{[5-(3-methylphenyl)-1,3,4-oxadiazol-2-yl]methyl}-8-(4-methylpiperazin-1-yl)-2,3,6,7-tetrahydro-1H-purine-2,6-dione] the IC50 was 31.3 nM.
In the case of `CC1CN(c2nc3c(c(=O)n(C)c(=O)n3C)n2Cc2nnc(-c3ccc(Cl)c(Cl)c3)o2)CCN1` (centres unmarked) [Example 33, 7-{[5-(3,4-dichlorophenyl)-1,3,4-oxadiazol-2-yl]methyl}-1,3-dimethyl-8-(3-methylpiperazin-1-yl)-2,3,6,7-tetrahydro-1H-purine-2,6-dione], the IC50 is reported as 17.8 nM.
Molecule `Cc1nc2c(c(=O)n(C)c(=O)n2C)n1Cc1nnc(-c2ccc(Cl)c(Cl)c2)o1` [Example 60, 7-{[5-(3,4-dichlorophenyl)-1,3,4-oxadiazol-2-yl]methyl}-1,3,8-trimethyl-2,3,6,7-tetrahydro-1H-purine-2,6-dione] has an IC50 of 28.4 nM.
In the case of `CCS(=O)(=O)c1nc2c(c(=O)n(C)c(=O)n2C)n1Cc1nnc(-c2ccc(Cl)c(Cl)c2)o1` [Example 23, 7-{[5-(3,4-dichlorophenyl)-1,3,4-oxadiazol-2-yl]methyl}-8-(ethanesulfonyl)-1,3-dimethyl-2,3,6,7-tetrahydro-1H-purine-2,6-dione], the IC50 is reported as 24.4 nM.
`CCCc1nc2c(c(=O)n(C)c(=O)n2C)n1Cc1nnc(-c2ccc(Cl)c(Cl)c2)o1` [Example 61, 7-{[5-(3,4-dichlorophenyl)-1,3,4-oxadiazol-2-yl]methyl}-1,3-dimethyl-8-propyl-2,3,6,7-tetrahydro-1H-purine-2,6-dione] was tested, and the IC50 was 246 nM.
In the case of `CCCNc1nc2c(c(=O)n(C)c(=O)n2C)n1Cc1nnc(-c2cccc(C)c2)o1` [Example 49, 1,3-dimethyl-7-{[5-(3-methylphenyl)-1,3,4-oxadiazol-2-yl]methyl}-8-(propylamino)-2,3,6,7-tetrahydro-1H-purine-2,6-dione], the IC50 is reported as 356 nM.

Same assay, conditions: Table 4; 6 nM NUDT5, 50 μM ADP-Ribose, 15 minutes at room temperature
`Cn1c(=O)c2c(nc(Cl)n2Cc2nnc(-c3cccnc3)o2)n(C)c1=O` [Example 94, 8-chloro-1,3-dimethyl-7-{[5-(pyridin-3-yl)-1,3,4-oxadiazol-2-yl]methyl}-2,3,6,7-tetrahydro-1H-purine-2,6-dione] gave an IC50 of 6910 nM.
`Cn1c(=O)c2c(nc(N3CCNCC3)n2Cc2nnc(-c3ccc(C(F)(F)F)cc3)o2)n(C)c1=O` [Example 121, 1,3-dimethyl-8-(piperazin-1-yl)-7-({5-[4-(trifluoromethyl)phenyl]-1,3,4-oxadiazol-2-yl}methyl)-2,3,6,7-tetrahydro-1H-purine-2,6-dione] was tested, and the IC50 was 51.6 nM.
With `Cn1c(=O)c2c(nc(N3CCNCC3)n2Cc2nnc(-c3ccc([N+](=O)[O-])cc3)o2)n(C)c1=O` [Example 115, 1,3-dimethyl-7-{[5-(4-nitrophenyl)-1,3,4-oxadiazol-2-yl]methyl}-8-(piperazin-1-yl)-2,3,6,7-tetrahydro-1H-purine-2,6-dione] the IC50 was 286 nM.
In the case of `COc1cccc(-c2nnc(Cn3c(Cl)nc4c3c(=O)n(C)c(=O)n4C)o2)c1` [Example 92, 8-chloro-7-{[5-(3-methoxyphenyl)-1,3,4-oxadiazol-2-yl]methyl}-1,3-dimethyl-2,3,6,7-tetrahydro-1H-purine-2,6-dione], the IC50 is reported as 596 nM.
Work on `Cn1c(=O)c2c(nc(N3CCNCC3)n2Cc2nnc(-c3ccc(F)cc3)o2)n(C)c1=O` [Example 109, 7-{[5-(4-fluorophenyl)-1,3,4-oxadiazol-2-yl]methyl}-1,3-dimethyl-8-(piperazin-1-yl)-2,3,6,7-tetrahydro-1H-purine-2,6-dione] yielded an IC50 of 345 nM.
`Cc1ccc(-c2cc(Cn3c(N4CCNCC4)nc4c3c(=O)n(C)c(=O)n4C)no2)cc1` [Example 79, 1,3-dimethyl-7-{[5-(4-methylphenyl)-1,2-oxazol-3-yl]methyl}-8-(piperazin-1-yl)-2,3,6,7-tetrahydro-1H-purine-2,6-dione] was tested, and the IC50 was 530 nM.
`Cc1cc(-c2nnc(Cn3c(Cl)nc4c3c(=O)n(C)c(=O)n4C)o2)ccc1Cl` [Example 97, 8-chloro-7-{[5-(4-chloro-3-methylphenyl)-1,3,4-oxadiazol-2-yl]methyl}-1,3-dimethyl-2,3,6,7-tetrahydro-1H-purine-2,6-dione] was tested, and the IC50 was 64.8 nM.
`Cn1c(=O)c2c(nc(Cl)n2Cc2cnc(-c3ccc(Cl)cc3)s2)n(C)c1=O` [Example 75, 8-chloro-7-{[2-(4-chlorophenyl)-1,3-thiazol-5-yl]methyl}-1,3-dimethyl-2,3,6,7-tetrahydro-1H-purine-2,6-dione] gave an IC50 of 239 nM.
With `Cn1c(=O)c2c(nc(Cl)n2Cc2nnc(-c3ccc(Cl)nc3)o2)n(C)c1=O` [Example 95, 8-chloro-7-{[5-(6-chloropyridin-3-yl)-1,3,4-oxadiazol-2-yl]methyl}-1,3-dimethyl-2,3,6,7-tetrahydro-1H-purine-2,6-dione] the IC50 was 1380 nM.
`COc1ccc(-c2nnc(Cn3c(N4CCNCC4)nc4c3c(=O)n(C)c(=O)n4C)o2)cc1Cl` [Example 118, 7-{[5-(3-chloro-4-methoxyphenyl)-1,3,4-oxadiazol-2-yl]methyl}-1,3-dimethyl-8-(piperazin-1-yl)-2,3,6,7-tetrahydro-1H-purine-2,6-dione] gave an IC50 of 17.4 nM.
For `Cn1c(=O)c2c(nc(N3CCN(C(=O)OC(C)(C)C)CC3)n2Cc2nnc(-c3ccc(N)cc3)o2)n(C)c1=O` [Example 105, tert-butyl 4-(7-{[5-(4-aminophenyl)-1,3,4-oxadiazol-2-yl]methyl}-1,3-dimethyl-2,6-dioxo-2,3,6,7-tetrahydro-1H-purin-8-yl)piperazine-1-carboxylate], the IC50 was 24500 nM.
In the case of `Cn1c(=O)c2c(nc(NCC3CCN(C(=N)N)CC3)n2Cc2nnc(-c3ccc(Cl)c(Cl)c3)o2)n(C)c1=O` [Example 85, 4-{[(7-{[5-(3,4-dichlorophenyl)-1,3,4-oxadiazol-2-yl]methyl}-1,3-dimethyl-2,6-dioxo-2,3,6,7-tetrahydro-1H-purin-8-yl)amino]methyl}piperidine-1-carboximidamide], the IC50 is reported as 19.5 nM.
In the case of `COc1cc(-c2nnc(Cn3c(N4CCNC(C(F)(F)F)C4)nc4c3c(=O)n(C)c(=O)n4C)o2)ccc1C` (centres unmarked) [Example 129, 7-{[5-(3-methoxy-4-methylphenyl)-1,3,4-oxadiazol-2-yl]methyl}-1,3-dimethyl-8-[3-(trifluoromethyl)piperazin-1-yl]-2,3,6,7-tetrahydro-1H-purine-2,6-dione], the IC50 is reported as 911 nM.
Work on `COc1cc(-c2nnc(Cn3c(SCCNC(=O)OC(C)(C)C)nc4c3c(=O)n(C)c(=O)n4C)o2)ccc1C` [Example 140, tert-butyl N-{2-[(7-{[5-(3-methoxy-4-methylphenyl)-1,3,4-oxadiazol-2-yl]methyl}-1,3-dimethyl-2,6-dioxo-2,3,6,7-tetrahydro-1H-purin-8-yl)sulfanyl]ethyl}carbamate] yielded an IC50 of 262 nM.
